Broadly, the inhibition is how much of the control response was suppressed. Low readings indicate little suppression, high ones strong suppression. The IC50 is the concentration at which inhibition is half-maximal.

Structures are written as SMILES.

In one assay the target is PDK1 Direct kinase (Homo sapiens (Human), UniProt O15530). The experiment in a line: Kinase-specific FRET-based Z'-LYTE assay against PDK1 Direct kinase. The assay is classed as biochemical. The settings on record: for IC50: read-out: PDK1 IC50. As for the experimental part:
The compounds of Formula (I) and (II) were tested in the biological test named Kinase-specific Z′-LYTE® assay (Invitrogen Corporation, Life Technologies).

A further assay deals with U87MG cells. The experiment in a line: U87MG cell proliferation, MTS assay. The assay is classed as cell-based, human. The settings on record: Homo sapiens, U-87 MG; 72 h, MTS assay; read-out: IC50 U87MG. As for the experimental part: (§1) The U87MG cell line was obtained from the National Institute for Cancer Research of Genoa (Italy) and cultured in DMEM 10% FBS and 2 mM glutamine. To isolate GSCs, approximately 2.0×10^6 cells were suspended in 1 mL of a defined serum-free Neural Stem Cell (NSC) medium (Daniele, S., et al., Modulation of A1 and A2B adenosine receptor activity: a new strategy to sensitise glioblastoma stem cells to chemotherapy. Cell death & disease, 2014. 5(11): p. e1539). After 3-4 days of culture, the neurospheres were collected, suspended in NSC medium, dissociated into single cells, and plated for the assays. For the long-term treatment of cells, NSC or complete medium containing drugs was replaced every two to three days.
(§2) The human U87MG cells or GSCs were seeded at a density of 3×10^3 cells/well. After 24 h, the cells were treated from one to seven days with fresh growth medium containing different concentrations of SA16, SA23 or IB35. Following the treatment period, cell proliferation was determined using the MTS assay according to manufacturer's instruction. The absorbance of formazan at […] was measured in a colorimetric assay with an automated plate reader (Victor Wallac 2, Perkin Elmer). The results were calculated by subtracting the mean background from the values obtained from each evaluation and were expressed as the percentage of the control (untreated cells). Sigmoid dose-response curve was generated, from which the IC50 values were derived.
As representative GBM cell line, the above U87MG cells were used; this human cell line resulted an appropriate model to study the effects of PDK1 inhibition, because it is deficient for the tumour suppressor phosphatase and tensin homologue (PTEN), a negative regulator of the PI3K/AKT pathway (Wang, S. I., et al., Somatic mutations of PTEN in glioblastoma multiforme. Cancer research, 1997. 57(19): p. 4183-4186). To examine the effects of SA16, SA23 and IB35 on GBM cell growth/survival, U87MG cells were incubated with different concentrations of the new compounds (1 nM-10 μM) for 24 and 72 h. Specifically, U87MG cells were treated in complete medium with different concentrations of SA16, SA23 or IB35 (1 nM-10 μM) for 24 h (A) or 72 h (B). At the end of treatment, cell proliferation was measured using the MTS assay. The data are expressed as a percentage with respect to that of untreated cells (control), which was set to 100%, and are the mean values±SEM of three independent experiments, each performed in duplicate. The significance of the differences reported in FIGS. 1 and 2 was determined with a one-way ANOVA with Bonferroni post-test (* p<0.05, **p<0.01, *** p<0.001 vs. control cells).
For orientation: Tetrazolium assays rely on reduction of a dye to a coloured formazan, in cell work by metabolically active cells.

The subject of assay [1] is GSCs isolated from U87MG cells. The experiment in a line: GSC proliferation, MTS assay. The assay is classed as cell-based, human. The settings on record: Homo sapiens, U-87 MG, 168 h; seven days of treatment, MTS assay. As for the experimental part: as §1, §2
The inhibition of PDK1 has been reported as potentially effective therapeutic approach to reduce self-renewal and propagation of GSCs (Signore, M., et al., Combined PDK1 and CHK1 inhibition is required to kill glioblastoma stem-like cells in vitro and in vivo. Cell death & disease, 2014. 5(5): p. e1223). On this basis, the effects of SA16, SA23 and IB35 on GSCs, isolated from U87MG cells as previously reported, were evaluated (Daniele, S., et al., Modulation of A1 and A28 adenosine receptor activity: a new strategy to sensitise glioblastoma stem cells to chemotherapy. Cell death & disease, 2014. 5(11): p. e1539). U87MG-derived GSCs were incubated with the indicated concentrations of IB35, SA23 or SA16 for four days (FIG. 8) or seven days (FIG. 9). At the end of the treatment periods, cell proliferation was measured using the MTS assay. The data were expressed as a percentage with respect to that of untreated cells (control), which was set to 100%, and are the mean values±SEM of three independent experiments, each performed in duplicate. IC50 values after seven days of treatment were calculated from sigmoid dose-response curve (FIG. 9). The significance of the differences was determined with a one-way ANOVA with Bonferroni post-test (** p<0.01, *** p<0.001 vs. control).

Sequence of PDK1 Direct kinase (O15530 whole entry): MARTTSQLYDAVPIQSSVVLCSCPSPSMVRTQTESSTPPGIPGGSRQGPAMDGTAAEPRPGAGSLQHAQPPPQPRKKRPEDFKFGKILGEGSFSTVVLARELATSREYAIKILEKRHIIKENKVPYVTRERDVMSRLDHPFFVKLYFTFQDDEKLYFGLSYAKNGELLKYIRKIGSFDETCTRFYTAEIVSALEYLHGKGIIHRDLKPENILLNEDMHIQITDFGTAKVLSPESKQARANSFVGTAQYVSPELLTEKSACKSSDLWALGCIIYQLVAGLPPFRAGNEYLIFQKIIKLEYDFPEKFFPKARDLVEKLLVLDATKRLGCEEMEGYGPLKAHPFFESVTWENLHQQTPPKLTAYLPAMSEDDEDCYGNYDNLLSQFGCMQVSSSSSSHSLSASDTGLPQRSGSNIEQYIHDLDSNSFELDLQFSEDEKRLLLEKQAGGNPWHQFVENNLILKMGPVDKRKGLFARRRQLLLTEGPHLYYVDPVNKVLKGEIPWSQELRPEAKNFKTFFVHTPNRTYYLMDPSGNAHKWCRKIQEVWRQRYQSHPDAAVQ

`O=C(CCNC(=O)c1cccn(Cc2ccc(F)c(F)c2)c1=O)Nc1ccc2c(c1)/C(=C/c1ccc(F)cc1)C(=O)N2` [DD23, (Z)-1-(3,4-difluorobenzyl)-N-(3-((3-(4-fluorobenzylidene)-2-oxoindolin-5-yl)amino)-3-oxopropyl)-2-oxo-1,2-dihydropyridine-3-carboxamide] displayed an inhibition at 10 µM against PDK1 Direct kinase of 15%.

`O=C(CCNC(=O)c1cccn(Cc2ccc(F)c(F)c2)c1=O)Nc1ccc2c(c1)/C(=C/c1cccs1)C(=O)N2` [DD22, (E/Z)-1-(3,4-difluorobenzyl)-2-oxo-N-(3-oxo-3-((2-oxo-3-(thiophen-2-ylmethylene)indolin-5-yl)amino)propyl)-1,2-dihydropyridine-3-carboxamide]: on PDK1 Direct kinase, the inhibition at 10 µM was greater than 50% and the IC50 is 1340 nM.

On to `O=C(CNC(=O)c1cccn(Cc2ccc(F)c(F)c2)c1=O)Nc1ccc2c(c1)CC(=O)N2` [IB32, 1-(3,4-difluorobenzyl)-2-oxo-N-(2-oxo-2-((2-oxoindolin-5-yl)amino)ethyl)-1,2-dihydropyridine-3-carboxamide], for which, at PDK1 Direct kinase, the inhibition at 10 µM was greater than 50% and the IC50 came to 6680 nM.

As for `O=C(CCCNC(=O)c1cccn(Cc2ccc(F)c(F)c2)c1=O)Nc1ccc2c(c1)/C(=C/c1cnc[nH]1)C(=O)N2` [DF8, (Z)-N-(4-((3-((1H-imidazol-5-yl)methylene)-2-oxoindolin-5-yl)amino)-4-oxobutyl)-1-(3,4-difluorobenzyl)-2-oxo-1,2-dihydropyridine-3-carboxamide], on PDK1 Direct kinase, the inhibition at 10 µM is greater than 50%.

`O=C(CCNC(=O)c1cccn(Cc2ccc(F)c(F)c2)c1=O)Nc1ccc2c(c1)/C(=C/c1ncc[nH]1)C(=O)N2` [DD25, (Z/E)-N-(3-((3-((1H-imidazol-2-yl)methylene)-2-oxoindolin-5-yl)amino)-3-oxopropyl)-1-(3,4-difluorobenzyl)-2-oxo-1,2-dihydropyridine-3-carboxamide]: 10 µM produced 47% inhibition on PDK1 Direct kinase.

Consider `O=C(CNC(=O)c1cccn(Cc2ccc(F)c(F)c2)c1=O)Nc1ccc2c(c1)C(=Cc1cccs1)C(=O)N2` (mixture of isomers) [IB36, (E/Z)-1-(3,4-difluorobenzyl)-2-oxo-N-(2-oxo-2-((2-oxo-3-(thiophe-2-ylmethylene)indolin-5-yl)amino)ethyl)-1,2-dihydropyridine-3-carboxamide], for which the inhibition at 10 µM against PDK1 Direct kinase was 19%.

For the compound `O=C1Nc2ccc(NC(=O)c3cccc(NC(=O)c4cccn(Cc5ccc(F)c(F)c5)c4=O)c3)cc2C1=Cc1cccs1` (mixture of isomers) [DD41, (E/Z)-1-(3,4-difluorobenzyl)-2-oxo-N-(3-((2-oxo-3-(thiophen-2-ylmethylene)indolin-5-yl)carbamoyl)phenyl)-1,2-dihydropyridine-3-carboxamide], testing at 10 µM on PDK1 Direct kinase gave an inhibition of 26%.

`CO[C@H]1C[C@@H]2CC[C@@H](C)[C@@](O)(O2)C(=O)C(=O)N2CCCC[C@H]2C(=O)O[C@H]([C@H](C)C[C@@H]2CC[C@@H](OCCO)[C@H](OC)C2)CC(=O)[C@H](C)/C=C(\C)[C@@H](O)[C@@H](OC)C(=O)[C@H](C)C[C@H](C)/C=C/C=C/C=C/1C` [Everolimus, reference compound]: the IC50 amounted to 50 ± 2.8 nM in the assay with U87MG cells and 15 ± 1.2 nM in assay [1].

`O=C(CCNC(=O)c1cccn(Cc2ccc(F)c(F)c2)c1=O)Nc1ccc2c(c1)/C(=C/c1cnc[nH]1)C(=O)N2` [DD21, (Z)—N-(3-((3-((1H-imidazol-5-yl)methylene)-2-oxoindolin-5-yl)amino)-3-oxopropyl)-1-(3,4-difluorobenzyl)-2-oxo-1,2-dihydropyridine-3-carboxamide]: at PDK1 Direct kinase, the inhibition at 10 µM was greater than 50%.

In the case of `O=C(CCCNC(=O)c1cccn(Cc2ccc(F)c(F)c2)c1=O)Nc1ccc2c(c1)C(=Cc1cccs1)C(=O)N2` (mixture of isomers) [DF9, (E/Z)-1-(3,4-difluorobenzyl)-2-oxo-N-(4-oxo-4-((2-oxo-3-(thiophen-2-ylmethylene)indolin-5-yl)amino)butyl)-1,2-dihydropyridine-3-carboxamide], on PDK1 Direct kinase, the inhibition at 10 µM is greater than 50% and the IC50 turned out to be 5880 nM.

Take `O=C1Nc2ccc(NC(=O)c3cccn(Cc4ccc(F)c(F)c4)c3=O)cc2/C1=C/c1cnc[nH]1` [JJ31, (Z)—N-(3-((1H-imidazol-5-yl)methylene)-2-oxoindolin-5-yl)-1-(3,4-difluorobenzyl)-2-oxo-1,2-dihydropyridine-3-carboxamide]: on PDK1 Direct kinase, the inhibition at 10 µM is greater than 50% and the 50% inhibitory concentration (IC50) was 512 nM.

The values above are taken from US10351548B2, “2-oxo-1,2-dihydropyridine-3-carboxamide compounds and their use as inhibitors of PDK1” (INTERNATIONAL SOCIETY FOR DRUG DEVELOPMENT S.R.L., priority 2015, dated 2019).
